In PubChem BioAssay (NCI):
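Five concentrations, 48 hours, 96-well plates. At the TGI there is no net growth.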

What was measured:
Experiment in all cases: NCI-60 cell line screen, 48 h
[1] = test system: HCT-116 colon
[2] = test system: MDA-MB-231 breast
[3] = test system: NCI-H460 lung
[4] = test system: MDA-MB-435
[5] = test system: NCI/ADR-RES ovarian
[6] = test system: HOP-62 NSCLC
[7] = test system: RPMI-8226 leukemia
[8] = test system: SF-539 CNS
[9] = test system: A498 renal
[10] = test system: HCT-15 colon
[11] = test system: MDA-N
[12] = test system: CAKI-1 renal
[13] = test system: IGROV1 ovarian
[14] = test system: SK-MEL-5 melanoma
[15] = test system: COLO 205 colon
[16] = test system: EKVX NSCLC
[17] = test system: SF-268 CNS
[18] = test system: SK-MEL-2 melanoma
[19] = test system: PC-3 prostate
[20] = test system: SN12C renal

| Compound | TGI [1] | TGI [2] | TGI [3] | TGI [4] | TGI [5] | TGI [6] | TGI [7] | TGI [8] | TGI [9] | TGI [10] | TGI [11] | TGI [12] | TGI [13] | TGI [14] | TGI [15] | TGI [16] | TGI [17] | TGI [18] | TGI [19] | TGI [20] |
| --- | --- | --- | --- | --- | --- | --- | --- | --- | --- | --- | --- | --- | --- | --- | --- | --- | --- | --- | --- | --- |
| O=C(O)C1CCCN1Cc1ccc2c(c1)OCO2 (stereo unspecified) | > 100 µM | > 100 µM | > 100 µM | > 100 µM | > 100 µM | > 100 µM | > 100 µM | > 100 µM | > 100 µM | > 100 µM | > 100 µM | > 100 µM | > 100 µM | > 100 µM | > 100 µM | > 100 µM | > 100 µM | > 100 µM | > 100 µM | > 100 µM |
| Cn1c(=O)c2c(nc3sc4ncccc4c(=O)n32)n(C)c1=O | > 100 µM | > 100 µM | > 100 µM | > 100 µM | > 100 µM | > 100 µM | > 100 µM | > 100 µM | > 100 µM | > 100 µM | > 100 µM | > 100 µM | > 100 µM | > 100 µM | > 100 µM | > 100 µM | > 100 µM | > 100 µM | > 100 µM | > 100 µM |
| COc1ccc(N2C(=O)CC(c3c[nH]c4ccccc34)C2=O)cc1 (stereo unspecified) | > 100 µM | > 100 µM | > 100 µM | > 100 µM | > 100 µM | > 100 µM | > 100 µM | > 100 µM | > 100 µM | > 100 µM | > 100 µM | > 100 µM | > 100 µM | > 100 µM | > 100 µM | > 100 µM | > 100 µM | > 100 µM | > 100 µM | > 100 µM |
| CN(C)C1COC2Cc3ccccc3C1O2 (stereo unspecified) | > 100 µM | > 100 µM | > 100 µM | > 100 µM | > 100 µM | > 100 µM | > 100 µM | > 100 µM | > 100 µM | > 100 µM | > 100 µM | > 100 µM | > 100 µM | > 100 µM | > 100 µM | > 100 µM | > 100 µM | > 100 µM | > 100 µM | > 100 µM |
| CCCC[Si](CCCC)(CCCC)O[C@@H](/C=C/C(=O)OCC)[C@H](Cc1ccccc1)O[Si](CCCC)(CCCC)CCCC | > 100 µM | > 100 µM | > 100 µM | > 100 µM | > 100 µM | > 100 µM | > 100 µM | > 100 µM | > 100 µM | > 100 µM | > 100 µM | > 100 µM | > 100 µM |  | > 100 µM | > 100 µM | > 100 µM | > 100 µM | > 100 µM | > 100 µM |
| O=C(NO)c1ccc(OCc2ccccc2)cc1 | 27.4 µM | > 100 µM | > 100 µM | > 100 µM | 32.1 µM | > 100 µM | > 100 µM | > 100 µM | 43.4 µM | 45 µM | > 100 µM | 54.2 µM | > 100 µM | > 100 µM | 77.6 µM | > 100 µM | > 100 µM | > 100 µM | > 100 µM | > 100 µM |
| CC[C@@H]1C[C@@H](O)[C@@H]2[C@H](O)[C@H](O)CN2C1 | > 100 µM | > 100 µM | > 100 µM | > 100 µM | > 100 µM |  | > 100 µM | > 100 µM | > 100 µM | > 100 µM | > 100 µM | > 100 µM | > 100 µM | > 100 µM | > 100 µM | > 100 µM | > 100 µM | > 100 µM | > 100 µM | > 100 µM |
| COC(=O)c1cc(/C=C2\Cc3cc4c(cc3C2=O)CCC4)cc2c1CCC2 | > 100 µM | > 100 µM | > 100 µM | > 100 µM | > 100 µM | > 100 µM | > 100 µM | > 100 µM | > 100 µM | > 100 µM | > 100 µM | > 100 µM | > 100 µM |  | > 100 µM | > 100 µM | > 100 µM | > 100 µM | > 100 µM | > 100 µM |
| CCC(C)(C)c1ccc(Oc2cccc(C(=O)O)c2)cc1 | > 100 µM | > 100 µM | > 100 µM | > 100 µM | > 100 µM | > 100 µM | 65.4 µM | > 100 µM | > 100 µM | > 100 µM | > 100 µM | > 100 µM | > 100 µM | > 100 µM | > 100 µM | > 100 µM | > 100 µM | > 100 µM | > 100 µM | > 100 µM |
| CN(C)CC1CN(C(=O)Nc2ccccc2)C(=N)O1 (stereo unspecified) | > 100 µM | > 100 µM | > 100 µM | > 100 µM | > 100 µM | > 100 µM | > 100 µM | > 100 µM | > 100 µM | > 100 µM | > 100 µM | > 100 µM | > 100 µM | > 100 µM | > 100 µM | > 100 µM | > 100 µM | > 100 µM | > 100 µM | > 100 µM |
| Cc1ccc2cccc(OC(=O)c3cc4c(cc3Cl)Sc3nccn3S4(=O)=O)c2n1 | 18.9 µM | 29.3 µM | 10.4 µM | 26.1 µM | 46.2 µM | 19.4 µM | 7.03 µM | 17.2 µM | 45 µM | 29 µM | > 96 µM | > 79.9 µM | 17.5 µM | 27 µM | 29.4 µM | 48 µM | > 100 µM | 27.1 µM | 14.7 µM | > 100 µM |
| Cc1ccc(S(=O)(=O)N/N=C2/CC[C@H](C(C)(C)C)C[C@@H]2C)cc1 | 29.3 µM | 43.7 µM | 32.2 µM | 32.7 µM | 31.2 µM | 26.9 µM | > 100 µM | 32.5 µM | 31.6 µM | 32.7 µM | 34.3 µM | 26.3 µM | 30 µM | 26.8 µM | 35.4 µM | 32.2 µM |  | 32.4 µM | 36.8 µM | 30.4 µM |
